Article PMC10433800, “Dissecting the Arginine and Lysine Biosynthetic Pathways and Their Relationship in Haloarchaeon Natrinema gari J7-2 via Endogenous CRISPR-Cas System-Based Genome Editing” (Microbiology Spectrum, 2023)

Target: T1, NgArgX (Natrinema gari, UniProt L9YZH8)
T1 construct: gene C486_12678; ArgX with His tag (C-terminal in complementation plasmids), expressed in and partially purified from the J7-2 delta-argWX strain; carrier ArgW with N-terminal His tag purified from E. coli BL21(DE3); with Alpha-aminoadipate/glutamate carrier protein LysW/ArgW
T1 sequence (L9YZH8 1-291): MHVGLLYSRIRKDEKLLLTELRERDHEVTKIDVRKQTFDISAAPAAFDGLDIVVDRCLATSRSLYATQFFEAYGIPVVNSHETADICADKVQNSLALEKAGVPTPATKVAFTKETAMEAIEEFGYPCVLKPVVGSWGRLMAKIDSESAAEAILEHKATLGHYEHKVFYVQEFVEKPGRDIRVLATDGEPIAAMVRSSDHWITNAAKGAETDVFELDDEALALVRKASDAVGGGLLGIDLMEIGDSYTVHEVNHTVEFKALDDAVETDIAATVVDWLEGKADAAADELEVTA
Experiment: LC-MS/MS of trypsin-digested NgArgW-glutamate product
Assay type: biochemical
Conditions: 10 mM glutamate, 20 mM ATP, 1 mM MgCl2, 0.1 mM ZnSO4, 3 M KCl, 100 mM HEPES pH 7.5, 45 °C, 12 h; glutamate ligated to Glu54 of NgArgW; enzyme partially purified

N[C@@H](CCC(=O)O)C(=O)O [glutamate]
LC-MS/MS of trypsin-digested NgArgW-glutamate product: both NgArgX and NgArgXa specifically act on glutamate rather than AAA
